Data reported in patent publication EP0066406A1, “Beta-lactam antibiotics” (BEECHAM GROUP PLC, priority 1981, dated 1982).
Where two headings read alike, the source gives them in different places.

Assays:
Test in all cases: MIC determination (agar/broth)
Format in all cases: cell-based
S. aureus Oxford = test system: S. aureus Oxford
E. coli NCTC 10418 = test system: E. coli NCTC 10418
P. rettgeri = conditions: Providencia rettgeri, AGAR
E. coli JT 425 = conditions: Escherichia coli, JT425, AGAR
E. cloacae N1 = conditions: Enterobacter cloacae, AGAR
E. coli JT 4 = conditions: Escherichia coli, JT4, AGAR
B. subtilis = conditions: Bacillus subtilis, AGAR
E. coli ESS = conditions: Escherichia coli, AGAR
N. catarrhalis 1502 = conditions: AGAR
[1] = test system: Ps. aeruginosa NCTC 10662; conditions: Pseudomonas aeruginosa
K. aerogenes A = conditions: Klebsiella aerogenes
P. morganii = conditions: Morganella morganii, AGAR
S. aureus Russell = test system: S. aureus Russell
Ps. aeruginosa Dalgleish = conditions: Pseudomonas aeruginosa; AGAR; Ps. aeruginosa Dalgleish 10^-2
P. mirabilis 889 = conditions: Proteus mirabilis, AGAR
S. faecalis I = conditions: Enterococcus faecalis, AGAR
S. pyogenes CN 10 = conditions: Streptococcus pyogenes, CN10, AGAR
S. marcescens US 32 = conditions: Serratia marcescens, US32, AGAR
P. mirabilis C 977 = conditions: Proteus mirabilis, C977, AGAR
[2] = Staphylococcus aureus, AGAR, read-out: MIC

CCN1CCN(C(=O)NC(C(=O)N[C@@H]2C(=O)N3[C@@H]2SC(C)(C)[C@@H]3C(=O)O)c2csc(N)n2)C(=O)C1=O (mixture of isomers) [Example 1, 6-[DL-a-(4-Ethyl-2,3-dioxopiperazin-l-carbonylamino)-2-aminothiazol-4-acetamido]penicillanic acid]
MIC (S. aureus Oxford; BROTH): 1.0 µg/mL
MIC (S. aureus Oxford; [2]): 1 µg/mL
MIC (E. coli NCTC 10418; BROTH): 1.0 µg/mL
MIC (E. coli NCTC 10418; Escherichia coli, NCTC10418, AGAR, read-out: MIC): 1 µg/mL
MIC (P. rettgeri): 2.5 µg/mL
MIC (E. coli JT 425): 25 µg/mL
MIC (E. cloacae N1): 0.5 µg/mL
MIC (E. coli JT 4): > 100 µg/mL
MIC (B. subtilis): 2.5 µg/mL
MIC (E. coli ESS): < 0.02 µg/mL
MIC (N. catarrhalis 1502): < 0.02 µg/mL
MIC ([1]; NCTC10662, AGAR, Ps. aeruginosa NCTC 10662): 5 µg/mL
MIC ([1]; NCTC10662, AGAR, Ps. aeruginosa NCTC 10662 10^-2): 2.5 µg/mL
MIC ([1]; NCTC10662, BROTH, Ps. aeruginosa NCTC 10662): 10 µg/mL
MIC ([1]; NCTC10662, BROTH, Ps. aeruginosa NCTC 10662 10^-2): 25 µg/mL
MIC (K. aerogenes A; AGAR): 10 µg/mL
MIC (K. aerogenes A; BROTH): 25 µg/mL
MIC (P. morganii): 0.5 µg/mL
MIC (S. aureus Russell; BROTH): 100 µg/mL
MIC (S. aureus Russell; [2]): 100 µg/mL
MIC (Ps. aeruginosa Dalgleish): > 100 µg/mL
MIC (P. mirabilis 889): > 100 µg/mL
MIC (S. faecalis I): 25 µg/mL
MIC (S. pyogenes CN 10): 0.1 µg/mL
MIC (S. marcescens US 32): 2.5 µg/mL
MIC (P. mirabilis C 977): 0.2 µg/mL
